Experimental data taken from PubChem BioAssay AID1963423 (Molecular Pharmacology Branch, DTP, NCI, 2024).
Several values for one entry are separate records, joined by “and”; a condition that tells them apart may be missing. Identical values can stand only once.

Tested on: 439559-082-T-J2-PDC complex spheroid growth
Test: Anticancer human tumor 439559-082-T-J2-PDC patient-derived colon adenocarcinoma cell line growth inhibition [Asc]
Settings: for viability, T/C: stronger effect = lower value; active = viability on the fitted dose curve at most 10% of control; inactive = the rest
How it was run: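 Complex spheroids combining tumor cells with HUVEC endothelial cells and human MSCs, at 37 degrees C, 5% CO2; agents tested alone or combined, half-log dilutions from at or near clinical Cmax, or 10 microM if Cmax unknown.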
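Also: spheroids exposed to agents for 7 days starting day 3 after seeding.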
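For viability, T/C in this document: percent of DMSO vehicle control viability with 100% = vehicle.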

Cn1ncnc1[C@H]1c2n[nH]c(=O)c3cc(F)cc(c23)N[C@@H]1c1ccc(F)cc1 + Cc1c(S(C)(=O)=O)c(-c2cc(F)cc(N3CCN(c4ccc(NS(=O)(=O)c5ccc(NC(CCN6CCC(C(=O)OCCCP(=O)(O)O)CC6)CSc6ccccc6)c(S(=O)(=O)C(F)(F)F)c5)cc4)CC3)c2)c(-c2ccc(Cl)cc2)n1C(C)C
inactive: viability, T/C (second compound 0.1 µM, first compound 0.000316 µM) 102% | viability, T/C (second compound 0.1 µM, first compound 0.001 µM) 106% | viability, T/C (second compound 0.1 µM, first compound 0.00316 µM) 103% | viability, T/C (second compound 0.1 µM, first compound 0.01 µM) 85.5% | viability, T/C (second compound 0.1 µM, first compound 0.0316 µM) 98% | viability, T/C (second compound 0.1 µM, first compound 0.1 µM) 87.7% | viability, T/C (second compound 0.316 µM, first compound 0.000316 µM) 100% | viability, T/C (second compound 0.316 µM, first compound 0.001 µM) 98.8% | viability, T/C (second compound 0.316 µM, first compound 0.00316 µM) 102% | viability, T/C (second compound 0.316 µM, first compound 0.01 µM) 90.2% | viability, T/C (second compound 0.316 µM, first compound 0.0316 µM) 90.4% | viability, T/C (second compound 0.316 µM, first compound 0.1 µM) 84.8% | viability, T/C (second compound 1 µM, first compound 0.000316 µM) 91% | viability, T/C (second compound 1 µM, first compound 0.001 µM) 93.3% | viability, T/C (second compound 1 µM, first compound 0.00316 µM) 102% | viability, T/C (second compound 1 µM, first compound 0.01 µM) 83% | viability, T/C (second compound 1 µM, first compound 0.0316 µM) 85.4% | viability, T/C (second compound 1 µM, first compound 0.1 µM) 81.1% | viability, T/C (second compound 3.16 µM, first compound 0.000316 µM) 85% | viability, T/C (second compound 3.16 µM, first compound 0.001 µM) 89.3% | viability, T/C (second compound 3.16 µM, first compound 0.00316 µM) 92.7% | viability, T/C (second compound 3.16 µM, first compound 0.01 µM) 81.3% | viability, T/C (second compound 3.16 µM, first compound 0.0316 µM) 79.4% | viability, T/C (second compound 3.16 µM, first compound 0.1 µM) 76.3% | viability, T/C (second compound 10 µM, first compound 0.000316 µM) 72.7% | viability, T/C (second compound 10 µM, first compound 0.001 µM) 74% | viability, T/C (second compound 10 µM, first compound 0.00316 µM) 75% | viability, T/C (second compound 10 µM, first compound 0.01 µM) 76.8% | viability, T/C (second compound 10 µM, first compound 0.0316 µM) 70.8% | viability, T/C (second compound 10 µM, first compound 0.1 µM) 66.5%
> 0.1 µM: IC50 (curve of first compound, second compound 0.1 µM) | IC50 (curve of first compound, second compound 0.316 µM) | IC50 (curve of first compound, second compound 1 µM) | IC50 (curve of first compound, second compound 3.16 µM) | IC50 (curve of first compound, second compound 10 µM)

NC(=O)C(=Cn1cnc(-c2cc(C(F)(F)F)cc(C(F)(F)F)c2)n1)c1cncnc1
inactive: viability, T/C (compound 0.000949 µM) 111% and 110% and 105% | viability, T/C (compound 0.003 µM) 105% and 102% and 86.8% | viability, T/C (compound 0.00949 µM) 101% and 99% and 94.4% | viability, T/C (compound 0.03 µM) 101% and 91.7% and 89.8% | viability, T/C (compound 0.0949 µM) 92.7% and 89.7% and 90.7% | viability, T/C (compound 0.3 µM) 82% and 86.4% and 78.2%
> 0.3 µM: IC50 (curve of compound)

C=C(F)C(=O)N1CCN(c2nc(OCC3CCCN3C)nc3c2CCN(c2cccc4cccc(Cl)c24)C3)CC1CC#N (configuration not stated)
7.1% and 14.9% and 23.5%: viability, T/C (compound 10 µM)
5.67 µM and 5.69 µM and 6.54 µM: IC50 (curve of compound)
inactive: viability, T/C (compound 0.0316 µM) 91.3% and 104% and 106% | viability, T/C (compound 0.1 µM) 90% and 103% and 109% | viability, T/C (compound 0.316 µM) 90.5% and 97.4% and 104% | viability, T/C (compound 1 µM) 96.6% and 97.8% and 102% | viability, T/C (compound 3.16 µM) 102% and 86.9% and 95%

CCN1C(C(=O)NC23CCC(C(=O)O)(CC2)CC3)C(c2cccc(Cl)c2F)C2(C(=O)Nc3cc(Cl)ccc32)C12CCCCC2 (configuration not stated)
> 3 µM: IC50 (compound alone, run of 10/11/2022) | IC50 (curve of compound)
inactive: viability, T/C (compound 0.00949 µM) 105% and 100% | viability, T/C (compound 0.03 µM) 101% [middle of 15 runs] | viability, T/C (compound 0.0949 µM) 99.9% [middle of 15 runs] | viability, T/C (compound 0.3 µM) 96.8% [middle of 15 runs] | viability, T/C (compound 0.949 µM) 102% [middle of 15 runs] | viability, T/C (compound 3 µM) 92.1% [middle of 15 runs]
